Results from ChEMBL document CHEMBL1201862, “PubChem BioAssay data set” (2004).
Active and inactive are the calls of the source.

Key:
[1] = molecular target: Luciferin 4-monooxygenase (Photinus pyralis, UniProt P08659); test: inhibition of purified Photinus pyralis luciferase – biochemical, luminescence, dose response (AID 1891)
[2] = CCR5-tropic HIV-1 fusion blockers – cell-based, CCR5-tropic Env, dose response (AID 2279); type: functional
[3] = Luminescence Cell-Based Dose Confirmation HTS to Identify Inhibitors of Platelet Dense Granule Release. [Related pubchem assays: 1663 (Primary HTS), 1678 (Summary of Project)]; type: functional
[4] = molecular target: T1, Neuropeptide Y receptor type 1 (Homo sapiens, UniProt P25929); type: functional;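 note: HEK293 cells with a CNG channel challenged with NPY then isoproterenol; potency as antagonist that reverses NPY suppression of cAMP signal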
T1 sequence (P25929 whole entry): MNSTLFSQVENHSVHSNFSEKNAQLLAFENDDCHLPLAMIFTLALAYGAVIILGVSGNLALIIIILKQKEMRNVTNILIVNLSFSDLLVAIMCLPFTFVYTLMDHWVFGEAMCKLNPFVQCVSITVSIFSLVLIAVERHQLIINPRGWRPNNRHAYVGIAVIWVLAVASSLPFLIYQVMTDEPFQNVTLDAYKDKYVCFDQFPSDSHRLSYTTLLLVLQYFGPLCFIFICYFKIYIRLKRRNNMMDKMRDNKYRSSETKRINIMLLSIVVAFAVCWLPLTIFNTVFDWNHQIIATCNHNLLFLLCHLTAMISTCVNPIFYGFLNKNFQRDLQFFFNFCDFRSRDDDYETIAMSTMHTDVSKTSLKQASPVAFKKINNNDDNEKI

[5] = molecular target: T2, Neuropeptide Y receptor type 2 (Homo sapiens, UniProt P49146); type: functional, cell-based;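 note: HEK293 cells expressing the receptor and a CNG channel; stimulus was NPY near EC95 followed by isoproterenol to raise cAMP; antagonist potency measured as restoring cAMP signal that NPY suppresses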
T2 sequence (P49146 whole entry): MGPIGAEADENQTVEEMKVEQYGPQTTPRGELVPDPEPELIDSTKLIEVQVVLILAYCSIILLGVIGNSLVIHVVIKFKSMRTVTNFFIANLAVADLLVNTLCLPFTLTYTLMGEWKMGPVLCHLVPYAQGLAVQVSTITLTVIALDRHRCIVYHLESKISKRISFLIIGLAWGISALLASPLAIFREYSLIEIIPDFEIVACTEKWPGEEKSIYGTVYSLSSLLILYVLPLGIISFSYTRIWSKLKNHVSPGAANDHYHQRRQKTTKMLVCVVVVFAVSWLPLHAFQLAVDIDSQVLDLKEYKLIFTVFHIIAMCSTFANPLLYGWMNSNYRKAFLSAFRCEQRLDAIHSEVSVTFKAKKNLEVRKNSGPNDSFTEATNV

[6] = molecular target: Peroxisome proliferator-activated receptor gamma/Nuclear receptor coactivator 2 (Homo sapiens, UniProt P37231); type: functional;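 note: agonist potency for raising coactivator recruitment to the receptor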
Chain of Peroxisome proliferator-activated receptor gamma/Nuclear receptor coactivator 2 (P37231 whole entry): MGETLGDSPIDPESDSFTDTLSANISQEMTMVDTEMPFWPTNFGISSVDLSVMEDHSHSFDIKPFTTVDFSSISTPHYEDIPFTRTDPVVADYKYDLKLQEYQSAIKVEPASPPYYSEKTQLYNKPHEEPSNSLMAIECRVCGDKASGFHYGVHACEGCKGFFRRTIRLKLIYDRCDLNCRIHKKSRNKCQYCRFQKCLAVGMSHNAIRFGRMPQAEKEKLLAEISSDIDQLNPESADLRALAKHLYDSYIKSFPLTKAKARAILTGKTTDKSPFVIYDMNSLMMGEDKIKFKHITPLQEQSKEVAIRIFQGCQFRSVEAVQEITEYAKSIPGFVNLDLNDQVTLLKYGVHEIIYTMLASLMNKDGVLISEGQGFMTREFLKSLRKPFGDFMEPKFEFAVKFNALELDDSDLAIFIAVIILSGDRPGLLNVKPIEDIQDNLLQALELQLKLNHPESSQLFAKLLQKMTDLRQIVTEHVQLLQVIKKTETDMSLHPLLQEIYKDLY
Chain of Peroxisome proliferator-activated receptor gamma/Nuclear receptor coactivator 2 (Q15596 whole entry, further chain): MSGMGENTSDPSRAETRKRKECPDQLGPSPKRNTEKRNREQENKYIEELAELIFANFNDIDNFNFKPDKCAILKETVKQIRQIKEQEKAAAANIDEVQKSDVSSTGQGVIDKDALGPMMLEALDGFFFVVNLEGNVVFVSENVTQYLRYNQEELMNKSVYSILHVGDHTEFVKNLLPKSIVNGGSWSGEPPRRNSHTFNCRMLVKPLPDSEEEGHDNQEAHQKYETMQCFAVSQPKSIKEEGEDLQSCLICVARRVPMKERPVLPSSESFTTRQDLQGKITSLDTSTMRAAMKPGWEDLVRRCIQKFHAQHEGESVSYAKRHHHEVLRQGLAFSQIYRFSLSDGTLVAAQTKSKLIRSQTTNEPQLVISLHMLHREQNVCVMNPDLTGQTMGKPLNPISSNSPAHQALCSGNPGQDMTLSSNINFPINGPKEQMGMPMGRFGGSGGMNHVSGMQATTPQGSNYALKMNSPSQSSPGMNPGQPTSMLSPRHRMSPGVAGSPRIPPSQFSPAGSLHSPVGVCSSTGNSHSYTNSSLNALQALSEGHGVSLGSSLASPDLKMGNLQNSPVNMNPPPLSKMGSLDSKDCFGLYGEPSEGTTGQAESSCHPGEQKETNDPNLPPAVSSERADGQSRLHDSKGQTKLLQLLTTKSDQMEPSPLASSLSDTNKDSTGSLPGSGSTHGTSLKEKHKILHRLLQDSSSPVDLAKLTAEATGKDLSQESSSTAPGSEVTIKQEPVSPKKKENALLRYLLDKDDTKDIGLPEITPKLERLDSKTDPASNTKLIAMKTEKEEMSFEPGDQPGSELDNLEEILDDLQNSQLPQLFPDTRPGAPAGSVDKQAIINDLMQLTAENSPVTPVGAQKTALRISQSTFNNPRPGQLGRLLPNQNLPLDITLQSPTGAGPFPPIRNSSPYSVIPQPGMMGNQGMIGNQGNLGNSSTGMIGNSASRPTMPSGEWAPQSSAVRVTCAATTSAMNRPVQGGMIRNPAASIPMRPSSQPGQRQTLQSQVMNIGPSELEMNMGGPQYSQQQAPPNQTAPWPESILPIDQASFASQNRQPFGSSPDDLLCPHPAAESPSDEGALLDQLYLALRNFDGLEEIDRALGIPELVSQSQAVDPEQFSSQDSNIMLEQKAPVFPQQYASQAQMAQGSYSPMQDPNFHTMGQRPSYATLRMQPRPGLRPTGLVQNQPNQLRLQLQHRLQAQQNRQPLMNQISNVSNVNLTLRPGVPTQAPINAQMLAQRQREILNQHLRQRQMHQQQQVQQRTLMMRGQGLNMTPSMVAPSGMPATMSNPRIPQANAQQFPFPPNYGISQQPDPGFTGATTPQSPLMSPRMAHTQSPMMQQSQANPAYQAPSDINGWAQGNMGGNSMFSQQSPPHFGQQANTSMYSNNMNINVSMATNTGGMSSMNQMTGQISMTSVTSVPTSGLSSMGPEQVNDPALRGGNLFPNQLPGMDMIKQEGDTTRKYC

[7] = molecular target: Peroxisome proliferator-activated receptor gamma/Nuclear receptor coactivator 3 (Homo sapiens, UniProt P37231); type: functional;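 note: agonist potency for raising coactivator recruitment to the receptor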
[8] = molecular target: Peroxisome proliferator-activated receptor gamma/Nuclear receptor coactivator 1 (Homo sapiens, UniProt P37231); type: functional;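 note: agonist potency as compounds enhance coactivator SRC-1 recruitment to PPARgamma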
Chain of Peroxisome proliferator-activated receptor gamma/Nuclear receptor coactivator 1 (P37231 whole entry): as the sequence (P37231 whole entry) above
Chain of Peroxisome proliferator-activated receptor gamma/Nuclear receptor coactivator 1 (Q15788 whole entry, further chain): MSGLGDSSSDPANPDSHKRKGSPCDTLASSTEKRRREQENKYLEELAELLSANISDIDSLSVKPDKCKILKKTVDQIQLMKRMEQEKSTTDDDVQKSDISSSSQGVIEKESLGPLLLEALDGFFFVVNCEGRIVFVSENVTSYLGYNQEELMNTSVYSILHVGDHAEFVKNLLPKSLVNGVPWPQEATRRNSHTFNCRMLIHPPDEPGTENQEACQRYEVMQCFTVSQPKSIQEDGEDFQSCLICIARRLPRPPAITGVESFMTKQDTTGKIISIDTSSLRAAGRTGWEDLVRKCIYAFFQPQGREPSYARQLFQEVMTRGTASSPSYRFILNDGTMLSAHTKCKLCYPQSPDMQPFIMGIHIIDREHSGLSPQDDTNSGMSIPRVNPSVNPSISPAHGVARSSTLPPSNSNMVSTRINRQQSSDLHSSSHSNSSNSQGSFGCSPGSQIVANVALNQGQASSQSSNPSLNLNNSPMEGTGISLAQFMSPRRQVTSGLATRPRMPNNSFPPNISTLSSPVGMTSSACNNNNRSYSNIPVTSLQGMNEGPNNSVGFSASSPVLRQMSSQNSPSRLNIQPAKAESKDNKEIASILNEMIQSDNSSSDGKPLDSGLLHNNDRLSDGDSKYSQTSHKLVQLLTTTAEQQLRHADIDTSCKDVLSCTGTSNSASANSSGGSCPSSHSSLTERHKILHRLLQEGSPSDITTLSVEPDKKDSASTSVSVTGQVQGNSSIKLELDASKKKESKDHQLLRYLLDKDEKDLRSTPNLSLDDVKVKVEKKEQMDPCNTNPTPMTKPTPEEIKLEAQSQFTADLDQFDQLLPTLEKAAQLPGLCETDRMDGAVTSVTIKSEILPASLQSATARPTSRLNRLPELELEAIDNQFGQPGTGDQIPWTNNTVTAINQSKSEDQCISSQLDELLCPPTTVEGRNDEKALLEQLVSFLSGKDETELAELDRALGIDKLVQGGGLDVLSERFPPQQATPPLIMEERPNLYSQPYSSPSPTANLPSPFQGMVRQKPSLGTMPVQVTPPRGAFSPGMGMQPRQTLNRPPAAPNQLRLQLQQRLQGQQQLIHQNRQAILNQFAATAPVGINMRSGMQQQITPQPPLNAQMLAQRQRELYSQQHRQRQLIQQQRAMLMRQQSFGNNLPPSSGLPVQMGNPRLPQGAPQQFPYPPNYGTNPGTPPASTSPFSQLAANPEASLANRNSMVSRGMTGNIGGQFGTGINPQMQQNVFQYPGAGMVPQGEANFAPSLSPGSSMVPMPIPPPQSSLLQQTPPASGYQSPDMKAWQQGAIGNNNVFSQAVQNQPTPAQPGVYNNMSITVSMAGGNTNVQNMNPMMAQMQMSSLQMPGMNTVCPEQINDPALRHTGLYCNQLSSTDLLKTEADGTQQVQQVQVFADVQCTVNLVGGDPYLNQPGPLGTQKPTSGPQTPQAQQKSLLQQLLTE

[9] = Luminescence Cell-Based Dose Confirmation HTS to Identify Activators of 5'UTR Stem-Loop Driven Alpha-Synuclein mRNA Translation in H4 Neuroglioblastoma Cells. [Related pubchem assays: 1829 (Project Summary), 1814 (Primary HTS)]; type: functional
[10] = system: H4; test: Luminescence Cell-Based Dose Response HTS to Identify Activators of 5'UTR Stem-Loop Driven Prion Protein mRNA Translation in H4 Neuroglioblastoma Cells. [Related pubchem assays: 1829 (Project Summary), 1814 (Primary HTS)]; type: functional; conditions: Homo sapiens
[11] = molecular target: NS3 (Hepatitis C virus, UniProt A3EZJ3); test: PubChem AID 2173; set-up: species or system Hepacivirus hominis
Chain of NS3 (A3EZJ3 whole entry): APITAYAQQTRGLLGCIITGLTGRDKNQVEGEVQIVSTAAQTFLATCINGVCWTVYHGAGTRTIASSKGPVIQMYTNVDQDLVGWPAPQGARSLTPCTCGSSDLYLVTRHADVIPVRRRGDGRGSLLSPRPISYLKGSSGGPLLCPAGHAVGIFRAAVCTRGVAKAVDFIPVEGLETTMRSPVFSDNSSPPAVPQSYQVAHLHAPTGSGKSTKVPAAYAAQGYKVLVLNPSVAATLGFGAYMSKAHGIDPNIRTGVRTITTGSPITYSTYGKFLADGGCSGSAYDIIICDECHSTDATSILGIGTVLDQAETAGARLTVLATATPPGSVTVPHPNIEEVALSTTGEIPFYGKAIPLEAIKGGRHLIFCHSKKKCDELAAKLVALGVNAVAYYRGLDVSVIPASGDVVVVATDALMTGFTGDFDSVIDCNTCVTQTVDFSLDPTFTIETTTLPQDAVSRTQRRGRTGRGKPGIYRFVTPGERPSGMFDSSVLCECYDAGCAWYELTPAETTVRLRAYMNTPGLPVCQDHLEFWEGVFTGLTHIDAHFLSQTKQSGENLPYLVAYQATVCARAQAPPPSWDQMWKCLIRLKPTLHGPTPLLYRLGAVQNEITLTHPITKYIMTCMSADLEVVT

[12] = cells
[13] = viability of uninfected HEp-2 cells – cell-based, HTS, cytotoxicity control for RSV inhibitor project, dose response (AID 2410); type: functional; conditions: human respiratory syncytial virus
[14] = molecular target: T3, Dual specificity protein phosphatase 6 (Rattus norvegicus, UniProt Q64346); type: functional
T3 sequence (Q64346 whole entry): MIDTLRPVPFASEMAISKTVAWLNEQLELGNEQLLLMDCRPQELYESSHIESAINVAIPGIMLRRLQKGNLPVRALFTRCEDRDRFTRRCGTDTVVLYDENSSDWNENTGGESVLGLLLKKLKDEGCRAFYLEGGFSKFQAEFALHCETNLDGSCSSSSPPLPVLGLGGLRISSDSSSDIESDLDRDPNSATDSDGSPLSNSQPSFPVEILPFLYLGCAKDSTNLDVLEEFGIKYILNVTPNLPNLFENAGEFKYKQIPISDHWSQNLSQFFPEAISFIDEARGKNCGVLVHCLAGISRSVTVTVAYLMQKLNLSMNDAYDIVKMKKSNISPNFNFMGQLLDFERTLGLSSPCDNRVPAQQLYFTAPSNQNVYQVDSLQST

[15] = molecular target: T4, Tyrosine-protein phosphatase non-receptor type 7 (Homo sapiens, UniProt P35236); type: functional
T4 sequence (P35236 whole entry): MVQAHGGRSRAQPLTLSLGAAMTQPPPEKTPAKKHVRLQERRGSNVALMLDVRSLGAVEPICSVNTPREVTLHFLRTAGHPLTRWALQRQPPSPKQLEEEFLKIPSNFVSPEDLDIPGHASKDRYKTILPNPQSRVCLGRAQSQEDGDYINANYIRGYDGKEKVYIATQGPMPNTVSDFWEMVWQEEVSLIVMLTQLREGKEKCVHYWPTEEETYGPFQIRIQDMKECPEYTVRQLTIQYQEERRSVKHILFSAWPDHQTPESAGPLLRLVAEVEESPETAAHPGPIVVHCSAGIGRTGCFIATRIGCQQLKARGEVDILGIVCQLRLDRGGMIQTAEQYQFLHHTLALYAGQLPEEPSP

[16] = molecular target: T3, Dual specificity protein phosphatase 6
[17] = molecular target: Glyceraldehyde-3-phosphate dehydrogenase (Homo sapiens, UniProt P04406)
Chain of Glyceraldehyde-3-phosphate dehydrogenase (P04406 whole entry): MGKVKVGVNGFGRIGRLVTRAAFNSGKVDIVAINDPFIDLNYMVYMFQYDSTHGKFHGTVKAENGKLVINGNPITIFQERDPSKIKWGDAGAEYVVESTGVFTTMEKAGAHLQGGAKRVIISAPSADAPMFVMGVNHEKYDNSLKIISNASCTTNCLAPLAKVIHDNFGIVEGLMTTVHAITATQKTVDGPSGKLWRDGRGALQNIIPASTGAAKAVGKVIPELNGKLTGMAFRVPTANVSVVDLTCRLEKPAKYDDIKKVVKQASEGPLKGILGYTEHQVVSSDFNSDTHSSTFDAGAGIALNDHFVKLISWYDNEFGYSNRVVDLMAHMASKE

[18] = system: Vero; test: viability of Vero cells under compound – cytotoxicity control for flavivirus capping enzyme inhibitors (AID 588742); type: functional; conditions: Chlorocebus sabaeus
[19] = molecular target: Genome polyprotein (dengue virus type 2, UniProt P29990); test: flavivirus cap methylation enzyme inhibition – biochemical, confirmation dose response, primary screen (AID 588689); type: functional
[20] = molecular target: T5, Eukaryotic translation initiation factor 2-alpha kinase 3 (Homo sapiens, UniProt Q9NZJ5); test: Counterscreen assay for PERK inhibitors: Dose response cell-based high throughput screening assay to measure inhibition of PERK at 6 hours. [Related pubchem assays: 1522, 1416 ]; type: functional
T5 sequence (Q9NZJ5 whole entry): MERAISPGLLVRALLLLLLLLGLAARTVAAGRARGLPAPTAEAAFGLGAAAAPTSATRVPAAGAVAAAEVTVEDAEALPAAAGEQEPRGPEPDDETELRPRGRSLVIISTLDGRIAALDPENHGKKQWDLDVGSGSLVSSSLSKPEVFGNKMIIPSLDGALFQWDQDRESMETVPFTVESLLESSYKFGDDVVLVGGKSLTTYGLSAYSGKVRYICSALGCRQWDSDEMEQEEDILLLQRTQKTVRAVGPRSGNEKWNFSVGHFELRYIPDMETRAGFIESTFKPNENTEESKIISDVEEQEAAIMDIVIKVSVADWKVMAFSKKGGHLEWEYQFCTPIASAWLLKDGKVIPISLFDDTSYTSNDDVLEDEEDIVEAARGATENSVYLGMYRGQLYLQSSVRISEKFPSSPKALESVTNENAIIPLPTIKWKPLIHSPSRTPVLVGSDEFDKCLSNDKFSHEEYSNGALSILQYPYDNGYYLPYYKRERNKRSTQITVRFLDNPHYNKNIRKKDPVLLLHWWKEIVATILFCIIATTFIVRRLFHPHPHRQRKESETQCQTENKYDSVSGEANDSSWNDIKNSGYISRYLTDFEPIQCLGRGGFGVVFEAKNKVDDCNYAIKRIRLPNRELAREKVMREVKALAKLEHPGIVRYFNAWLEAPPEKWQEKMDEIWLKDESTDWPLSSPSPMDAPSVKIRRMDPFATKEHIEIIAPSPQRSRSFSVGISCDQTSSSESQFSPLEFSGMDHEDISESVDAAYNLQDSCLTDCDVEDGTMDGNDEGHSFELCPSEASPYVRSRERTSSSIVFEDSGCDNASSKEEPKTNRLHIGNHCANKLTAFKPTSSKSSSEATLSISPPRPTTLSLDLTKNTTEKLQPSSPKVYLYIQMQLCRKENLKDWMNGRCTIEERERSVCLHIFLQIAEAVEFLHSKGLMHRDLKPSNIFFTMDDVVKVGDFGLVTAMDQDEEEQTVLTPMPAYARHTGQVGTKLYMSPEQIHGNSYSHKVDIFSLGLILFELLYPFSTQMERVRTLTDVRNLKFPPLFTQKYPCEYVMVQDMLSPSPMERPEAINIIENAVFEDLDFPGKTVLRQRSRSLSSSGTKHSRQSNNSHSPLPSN

[21] = molecular target: T5, Eukaryotic translation initiation factor 2-alpha kinase 3; test: Dose response cell-based high-throughput screening assay to measure PERK inhibition. [Related pubchem assays: 1416 ]; type: functional
[22] = system: Streptococcus; test: GAS UMAA2166 growth inhibition – luminescence, BacTiterGlo, counter-screen for streptokinase expression inhibitor project, dose response (AID 1915); type: functional, organism-based;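 note: potency for reduction of bacterial viability or growth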
[23] = molecular target: T6, Streptokinase A (Streptococcus pyogenes serotype M1, UniProt P10520); test: viability-normalized secreted streptokinase activity reduction – plasminogen activation absorbance, OD405, dose response (AID 1914); type: functional, Streptococcus pyogenes M1 GAS;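 note: secreted streptokinase activity via plasminogen activation per viability signal from cell pellet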
T6 sequence (P10520 whole entry): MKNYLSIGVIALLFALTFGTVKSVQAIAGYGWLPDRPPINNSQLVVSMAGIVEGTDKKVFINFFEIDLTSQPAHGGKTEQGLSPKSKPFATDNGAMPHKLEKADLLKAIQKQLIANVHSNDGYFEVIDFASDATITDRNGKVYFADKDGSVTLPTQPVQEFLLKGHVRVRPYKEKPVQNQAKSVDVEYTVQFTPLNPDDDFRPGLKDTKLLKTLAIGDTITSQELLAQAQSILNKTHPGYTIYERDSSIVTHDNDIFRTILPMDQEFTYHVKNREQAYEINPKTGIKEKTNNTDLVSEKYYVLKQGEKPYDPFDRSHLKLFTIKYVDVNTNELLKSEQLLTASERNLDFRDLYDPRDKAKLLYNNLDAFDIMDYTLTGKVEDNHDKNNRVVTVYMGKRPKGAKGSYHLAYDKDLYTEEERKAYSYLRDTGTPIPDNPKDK

[24] = Luminescence Cell-Based Dose Retest to Confirm Inhibitors of Cancer Stem Cells. [Related pubchem assays (depositor defined):AID2717, AID2721]; type: functional; conditions: Homo sapiens
[25] = system: Streptococcus sp. 'group A'; test: Streptococcus pyogenes SK(-)GAS viability under kanamycin – luminescence, BacTiterGlo, confirmation, counter-screen for streptokinase expression inhibitor project, dose response (AID 1900); type: functional, organism-based
[26] = molecular target: Acyl-homoserine lactone acylase PvdQ (Pseudomonas aeruginosa (strain LESB58), UniProt Q9I194); test: PvdQ acylase enzyme activity blockers – biochemical, fluorescence, plate reader and imaging, cherry-picks, dose response (AID 493231)

CCOC(=O)c1sc(N2C(=O)C(O)=C(C(=O)c3ccc(C)o3)C2c2cccc([N+](=O)[O-])c2)nc1C (stereo unspecified)
EC50 [1]: > 112 µM (not active) | IC50 [2]: 41.1 µM (active) | EC50 [3]: 18.5 µM (active)

CCOc1ccc(NC(=S)N2CCC(C(O)(c3ccccc3)c3ccccc3)CC2)cc1
IC50 [4]: > 35 µM (not active) | IC50 [5]: 0.22 µM (active)

CCOC(=O)c1ccc(NC(=O)CCc2nc(-c3ccc(C)cc3)no2)cc1
EC50 [6]: > 79.4 µM (not active) | EC50 [7]: > 79.4 µM (not active) | EC50 [8]: > 79.4 µM (not active)

COc1ccc(C(=O)C2=C(O)C(=O)N(c3ccccn3)C2c2ccc(C(C)C)cc2)cc1 (stereo unspecified)
EC50 [9]: 22.4 µM (active) | EC50 [10]: 17 µM (active) | IC50 [11]: 6.24 µM (active)

Cc1ccc2cc(CN(CC3CCCO3)C(S)=NCc3ccco3)c(O)nc2c1C (stereo unspecified)
IC50 [12]: 24.6 µM (active) | CC50 [13]: 24.3 µM (active)

CC(C)CNc1nc(=O)n(-c2ccc(F)cc2)c(=O)[nH]1
IC50 [14]: > 100 µM (inactive) | IC50 [15]: > 100 µM (not active) | IC50 [16]: > 100 µM (inactive) | IC50 [17]: > 100 µM (not active)

O=C(/C=C/c1ccc(OCc2c(F)cccc2Cl)cc1)N1CCOCC1
IC50 [12]: 10.4 µM (active) | CC50 [13]: 15.9 µM (active)

Cc1cc(N2C(=O)C(O)=C(C(=O)c3ccc(C)o3)C2c2cccc(Oc3ccccc3)c2)no1 (stereo unspecified)
CC50 [18]: > 40 µM (active) | IC50 [11]: 1.95 µM (active) | IC50 [19]: 32 µM (active)

CCc1cccc(C)c1NC(=O)Nc1ccc2c(c1)OCO2
EC50 [20]: > 55.7 µM (not active) | EC50 [21]: > 55.7 µM (not active)

Cc1cc2ccccn2c1C(=O)C(=O)O
IC50 [14]: > 100 µM (inactive) | IC50 [15]: > 100 µM (not active) | IC50 [16]: > 100 µM (inactive) | IC50 [17]: > 100 µM (not active)

CC(C)COC(=O)c1cccc2c1-c1ccccc1/C2=N\O
IC50 [4]: 6.46 µM (active) | IC50 [5]: 4.96 µM (active) | EC50 [22]: > 150 µM (not active) | CC50 [13]: > 50 µM (active) | EC50 [23]: > 50 µM (not active) | AC50 [24]: 5.69 µM (active) | EC50 [25]: 4.74 µM (active)

CCOC(=O)c1ccc(N2C(=O)C(C)=C(C)C2=O)cc1
AC50 [26]: 25 µM (active)

O=C(CSc1ccc2nnc(-c3ccc(Cl)cc3)n2n1)N1CCCc2ccccc21
EC50 [6]: 27.4 µM (not active) | EC50 [7]: 52.3 µM (not active) | EC50 [8]: 50.1 µM (not active)

CN1CCOCCOCCN(C)C(=O)N2CCOCCOCCN(CCOCC2)C1=O
EC50 [20]: > 55.7 µM (not active) | EC50 [21]: > 55.7 µM (not active)
